Values joined by “and” are separate entries in the source; they are usually repeats but may differ in a detail not shown here. Equal entries are not always repeated.
How the values were obtained:
[1] = xn = mol fraction of the nth substance listed; settings: 101.3 kPa, Liquid, Vibrating tube method
[2] = excess molar enthalpy (molar enthalpy of mixing); xn = mol fraction of the nth substance listed; settings: 101.3 kPa, Liquid, Flow calorimetry

CCCOC(C)=O [propyl ethanoate] + O
Settings	excess molar enthalpy, [2]	mass density, [1]
288.15 K, x1 = 0.000935	-0.00273 kcal/mol	999.019 kg/m3
288.15 K, x1 = 0.001246	-0.00364 kcal/mol	998.986 kg/m3
288.15 K, x1 = 0.001248	-0.00363 kcal/mol	998.988 kg/m3
288.15 K, x1 = 0.001558	-0.00452 kcal/mol	998.959 kg/m3
288.15 K, x1 = 0.00156	-0.00446 kcal/mol	998.962 kg/m3
288.15 K, x1 = 0.001869	-0.00535 kcal/mol	998.934 kg/m3
288.15 K, x1 = 0.001871	-0.00534 kcal/mol	998.936 kg/m3
288.15 K, x1 = 0.00218	-0.0062 kcal/mol	998.909 kg/m3
288.15 K, x1 = 0.002182	-0.00616 kcal/mol	998.906 kg/m3
288.15 K, x1 = 0.002491	-0.00703 kcal/mol	998.876 kg/m3
288.15 K, x1 = 0.002494	-0.00708 kcal/mol	998.882 kg/m3
298.15 K, x1 = 0.000935	-0.00206 kcal/mol	996.903 kg/m3
298.15 K, x1 = 0.000936	-0.0021 kcal/mol	996.9 kg/m3
298.15 K, x1 = 0.000937	-0.00212 kcal/mol	996.898 kg/m3
298.15 K, x1 = 0.001247	-0.00274 kcal/mol	996.856 kg/m3
298.15 K, x1 = 0.001248	-0.00277 kcal/mol	996.852 kg/m3
298.15 K, x1 = 0.001249	-0.00278 kcal/mol	996.848 kg/m3
298.15 K, x1 = 0.001558	-0.00347 kcal/mol	996.807 kg/m3
298.15 K, x1 = 0.00156	-0.00342 kcal/mol and -0.00343 kcal/mol	996.803 kg/m3 and 996.805 kg/m3
298.15 K, x1 = 0.001869	-0.00404 kcal/mol	996.762 kg/m3
298.15 K, x1 = 0.001871	-0.00407 kcal/mol	996.758 kg/m3
298.15 K, x1 = 0.001872	-0.00405 kcal/mol	996.748 kg/m3
298.15 K, x1 = 0.002181	-0.00472 kcal/mol	996.714 kg/m3
298.15 K, x1 = 0.002183	-0.00466 kcal/mol and -0.00472 kcal/mol	996.703 kg/m3 and 996.709 kg/m3
298.15 K, x1 = 0.002492	-0.00539 kcal/mol	996.669 kg/m3
298.15 K, x1 = 0.002494	–	996.669 kg/m3
298.15 K, x1 = 0.002495	–	996.655 kg/m3
308.15 K, x1 = 0.000936	-0.00148 kcal/mol and -0.00147 kcal/mol	993.831 kg/m3 and 993.832 kg/m3
308.15 K, x1 = 0.001247	-0.00196 kcal/mol and -0.00197 kcal/mol	993.761 kg/m3
308.15 K, x1 = 0.001559	-0.00245 kcal/mol and -0.00244 kcal/mol	993.691 kg/m3 and 993.692 kg/m3
308.15 K, x1 = 0.00187	-0.00286 kcal/mol and -0.00292 kcal/mol	993.628 kg/m3 and 993.621 kg/m3
308.15 K, x1 = 0.002181	-0.00332 kcal/mol and -0.00334 kcal/mol	993.559 kg/m3 and 993.557 kg/m3
308.15 K, x1 = 0.002492	-0.0037 kcal/mol and -0.00371 kcal/mol	993.5 kg/m3 and 993.503 kg/m3
318.15 K, x1 = 0.000936	-0.000911 kcal/mol	989.957 kg/m3
318.15 K, x1 = 0.000937	-0.000932 kcal/mol	989.951 kg/m3
318.15 K, x1 = 0.001247	-0.00119 kcal/mol	989.872 kg/m3
318.15 K, x1 = 0.001248	-0.00122 kcal/mol	989.86 kg/m3
318.15 K, x1 = 0.001559	-0.00148 kcal/mol	989.782 kg/m3
318.15 K, x1 = 0.001561	-0.00148 kcal/mol	989.779 kg/m3
318.15 K, x1 = 0.00187	-0.00175 kcal/mol	989.693 kg/m3
318.15 K, x1 = 0.001873	-0.00172 kcal/mol	989.698 kg/m3
318.15 K, x1 = 0.002182	-0.00201 kcal/mol	989.605 kg/m3
318.15 K, x1 = 0.002184	-0.00198 kcal/mol	989.612 kg/m3
318.15 K, x1 = 0.002493	-0.00221 kcal/mol	989.536 kg/m3
318.15 K, x1 = 0.002496	-0.00221 kcal/mol	989.532 kg/m3
